The target in assay [1] is T1, V600E mutant B-raf (Homo sapiens, UniProt P15056, V600E).
T1 construct: A375 cells, a human melanoma cell line having the V600E mutant B-raf is used in this assay; endogenous in cells; host or cells: A375 human melanoma cells
The assay is described as follows: B-raf cell-based assay (ratio of phospho-ERK1/2 to total ERK1/2 in A375 cells). The note with it: A375 human melanoma cells, P-ERK/total ERK. Here is the method:
A cell-based assay was optimized to assay the ability of compounds to inhibit B-raf activity in a whole cell context. […] The cell-based assay quantifies the ratio of phospho-ERK1/2 to total ERK1/2 and can thereby assay the cellular inhibition of B-raf kinase activity. A375 cells are plated into 96 well plates and grown to confluence. The cells are then changed into starve media (DMEM/0.1% BSA) for 60 minutes. Compounds in DMSO dose curves are then diluted in starve media and added to cells. […] After a 60 minute incubation the cells are fixed for 20 minutes at RT in 4% formaldehyde with 0.1% Triton X-100, protease and phosphatase inhibitors in PBS. The cells are washed four times in PBS then blocked for 60 minutes using a one to one mix of Odyssey blocking buffer (Li-Cor Biosciences, Inc) and PBS. Primary antibodies (rabbit anti-phospho p42/p44 MAPK (P-ERK1/2) from Cell Signaling Technology and mouse anti-ERK2 from Santa Cruz Biotechnology) are diluted in blocking buffer, added to the cells and incubated overnight at 4° C. The cells are then washed four times in PBS/0.1% Tween-20. Secondary antibodies (anti-mouse IRDye 800CW from Rockland, Inc and anti-rabbit AlexaFlour680 from Molecular Probes) are diluted in blocking buffer/0.5% Tween and incubated on cells for 60 minutes. After 4 washes in PBS/0.1% Tween-20 the microplate is scanned on an Odyssey Infrared Imager (Li-Cor Bioscience) which can read the signal given by the two secondary antibodies on their respective channels. The ratio of P-ERK/total ERK is determined and IC50s generated using Excel-XLfit software.

The target of assay [2] is recombinant HuBraf V600E (Homo sapiens, UniProt P15056, V600E). The assay can be described thus: B-raf Homogenous Time Resolved Fluorescent (HTRF) kinase assay. The class given is biochemical. The note with it: human mutant B-raf V600E, substrate MEK1, 10 uM ATP, read-out: HTRF Enzyme assay Data IC50. Here is the method:
B-raf-Homogenous Time Resolved Fluorescent (HTRF) Kinase Assay
The final concentration of the kinase reaction buffer is 50 mM Tris-HCL pH 7.5, 10 mM MgCl2, 0.5% glucose, 0.5 mM DTT, 0.01% BSA. […] The detection reaction proceeds for one hour and is read on a RubyStar (BMG Labtech) counter. IC50s for the test compounds are generated using Excel-XLfit software.

Where two headings read alike, the source gives them in different places.

One may read the IC50 as the concentration that inhibits the measured activity by half.

Sequence of recombinant HuBraf V600E (P15056 whole entry V600E): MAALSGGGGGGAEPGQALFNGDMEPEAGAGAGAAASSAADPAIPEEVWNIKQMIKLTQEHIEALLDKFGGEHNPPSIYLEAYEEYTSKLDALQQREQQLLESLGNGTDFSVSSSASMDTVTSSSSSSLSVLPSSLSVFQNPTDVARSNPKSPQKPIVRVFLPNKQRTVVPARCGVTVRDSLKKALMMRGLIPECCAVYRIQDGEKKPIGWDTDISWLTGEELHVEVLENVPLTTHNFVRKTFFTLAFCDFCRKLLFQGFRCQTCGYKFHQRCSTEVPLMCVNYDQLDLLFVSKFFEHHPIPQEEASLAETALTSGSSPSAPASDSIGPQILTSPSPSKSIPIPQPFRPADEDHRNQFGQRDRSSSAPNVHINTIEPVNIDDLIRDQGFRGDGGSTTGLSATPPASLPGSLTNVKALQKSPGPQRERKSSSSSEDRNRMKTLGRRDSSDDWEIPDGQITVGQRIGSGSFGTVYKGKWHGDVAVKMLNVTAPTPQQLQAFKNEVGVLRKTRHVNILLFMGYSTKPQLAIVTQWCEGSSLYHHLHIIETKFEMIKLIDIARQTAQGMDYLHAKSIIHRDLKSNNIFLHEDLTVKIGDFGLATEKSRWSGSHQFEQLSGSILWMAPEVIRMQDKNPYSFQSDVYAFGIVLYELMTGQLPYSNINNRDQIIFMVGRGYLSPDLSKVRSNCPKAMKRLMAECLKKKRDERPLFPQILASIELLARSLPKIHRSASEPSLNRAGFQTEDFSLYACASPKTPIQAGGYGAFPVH
T1 sequence (P15056 whole entry V600E): as above

Consider `Cc1ccc2c(Nc3ccc4c(c3)C(F)(F)C(=O)N4C)nccc2c1Nc1ncccc1-c1ncnc2[nH]ccc12` [Example 45, 3,3-difluoro-1-methyl-5-((6-methyl-5-((3-(7H-pyrrolo[2,3-d]pyrimidin-4-yl)-2-pyridinyl)amino)-1-isoquinolinyl)amino)-1,3-dihydro-2H-indol-2-one], for which the IC50 in assay [1] (Table I) is 15 nM; in assay [2] (Table I), 8 nM.
As to `Cc1ccc2c(Nc3ccc(C#N)cc3)nccc2c1Nc1ncccc1-c1ncnc2cc[nH]c12` [Example 63, 4-((6-methyl-5-((3-(5H-pyrrolo[3,2-d]pyrimidin-4-yl)-2-pyridinyl)amino)-1-isoquinolinyl)amino)benzonitrile], the IC50 in assay [1] (Table I) came out at 1000 nM; in assay [2] (Table I), 171 nM.
Take `Cc1ccc2c(Nc3cccc(C(F)(F)F)c3)ncnc2c1Nc1ncccc1-c1ncnc2[nH]cnc12` [Example 73, 7-methyl-N-8-(3-(9H-purin-6-yl)-2-pyridinyl)-N-4-(3-(trifluoromethyl)phenyl)-4,8-quinazolinediamine]: the IC50 in assay [1] (Table II) was 33 nM; in assay [2] (Table II), 26 nM.
For the compound `Cc1ccc2c(Nc3ccc(Cl)cc3)nccc2c1Oc1ncccc1-c1ncnc2[nH]cnc12` [Example 68, N-(4-chlorophenyl)-6-methyl-5-((3-(9H-purin-6-yl)-2-pyridinyl)oxy)-1-isoquinolinamine], the figures for the IC50 in assay [1] (Table I) and in assay [2] (Table I) were 1000 nM and 26 nM, respectively.
As to `Cc1ccc2c(Nc3ccc(OC(F)F)cc3)ncnc2c1Nc1ncccc1-c1ncnc2[nH]cnc12` [Example 76, N-4-(4-(difluoromethoxy)phenyl)-7-methyl-N-8-(3-(9H-purin-6-yl)-2-pyridinyl)-4,8-quinazolinediamine], the IC50 came to 5 nM in assay [1] (Table II) and 9 nM in assay [2] (Table II).
The like results for `Cc1ccc2c(Nc3ccc(C#N)cc3)nccc2c1Nc1ncccc1-c1ncnc2[nH]ncc12` [Example 71, 4-((6-methyl-5-((3-(1H-pyrazolo[3,4-d]pyrimidin-4-yl)-2-pyridinyl)amino)-1-isoquinolinyl)amino)benzonitrile] were, in that order, 12 nM and 4 nM.
With `COc1ccc(Nc2nccc3c(Nc4ncccc4-c4ncnc5[nH]ncc45)c(C)ccc23)cc1C(F)(F)F` [Example 66, N5-(3-(1H-pyrazolo[3,4-d]pyrimidin-4-yl)pyridin-2-yl)-N1-(4-methoxy-3-(trifluoromethyl)phenyl)-6-methylisoquinoline-1,5-diamine], the IC50 is 28 nM in assay [1] (Table I) and 25 nM in assay [2] (Table I).
Regarding `Cc1ccc2c(Nc3ccc(Cl)cc3)nccc2c1Nc1ncccc1-c1ncnc2[nH]ccc12` [Example 42, N-1-(4-chlorophenyl)-6-methyl-N-5-(3-(7H-pyrrolo[2,3-d]pyrimidin-4-yl)-2-pyridinyl)-1,5-isoquinolinediamine], the IC50 in assay [1] (Table I) stood at 5 nM; in assay [2] (Table I), 3 nM.
The like results for `Cc1ccc(OC(F)(F)F)cc1Nc1nccc2c(Nc3ncccc3-c3ncnc4[nH]ccc34)c(C)ccc12` [Example 41, 6-methyl-N-1-(2-methyl-5-((trifluoromethyl)oxy)phenyl)-N-5-(3-(7H-pyrrolo[2,3-d]pyrimidin-4-yl)-2-pyridinyl)-1,5-isoquinolinediamine] were, in that order, 107 nM and 35 nM.
Consider `C#Cc1cccc(Nc2ncnc3c(Nc4ncccc4-c4ncnc5[nH]cnc45)c(C)ccc23)c1` [Example 75, N-4-(3-ethynylphenyl)-7-methyl-N-8-(3-(9H-purin-6-yl)-2-pyridinyl)-4,8-quinazolinediamine], for which the IC50 in assay [1] (Table II) is 28 nM; in assay [2] (Table II) it was 3 nM.
With `Cc1ccc2c(Nc3ccc(C#N)cc3)ncnc2c1Nc1ncccc1-c1ncnc2[nH]ccc12` [Example 60, 4-((7-methyl-8-((3-(7H-pyrrolo[2,3-d]pyrimidin-4-yl)-2-pyridinyl)amino)-4-quinazolinyl)amino)benzonitrile], the IC50 in assay [1] (Table I) came to 233 nM; in assay [2] (Table I) it was 10 nM.
Consider `Cc1ccc2c(Nc3ccc4c(c3)OC(F)(F)O4)nccc2c1Nc1ncccc1-c1ncnc2[nH]ncc12` [Example 72, N-1-(2,2-difluoro-1,3-benzodioxol-5-yl)-6-methyl-N-5-(3-(1H-pyrazolo[3,4-d]pyrimidin-4-yl)-2-pyridinyl)-1,5-isoquinolinediamine], for which the results for the IC50 in assay [1] (Table II) and in assay [2] (Table II) were 18 nM and 20 nM, respectively.
In the case of `Cc1ccc(C(F)(F)F)cc1Nc1nccc2c(Nc3nc(Cl)ncc3-c3ncnc4[nH]ccc34)c(C)ccc12` [Example 55, N-5-(2-chloro-5-(7H-pyrrolo[2,3-d]pyrimidin-4-yl)-4-pyrimidinyl)-6-methyl-N-1-(2-methyl-5-(trifluoromethyl)phenyl)-1,5-isoquinolinediamine], the values for the IC50 in assay [1] (Table I) and in assay [2] (Table I) were 86 nM and 15 nM, respectively.
The like results for `Cc1ccc2c(Nc3ccc4c(c3)C(F)(F)OC(F)(F)O4)nccc2c1Nc1ncccc1-c1ncnc2[nH]ccc12` [Example 54, 6-methyl-N-5-(3-(7H-pyrrolo[2,3-d]pyrimidin-4-yl)-2-pyridinyl)-N-1-(2,2,4,4-tetrafluoro-4H-1,3-benzodioxin-6-yl)-1,5-isoquinolinediamine] were, in that order, 99 nM and 205 nM.
With `Cc1ccc2c(Nc3ccc(Cl)cc3)nccc2c1Nc1ncncc1-c1ncnc2[nH]cnc12` [Example 69, N-1-(4-chlorophenyl)-6-methyl-N-5-(5-(9H-purin-6-yl)-4-pyrimidinyl)-1,5-isoquinolinediamine], the IC50 in assay [1] (Table II) amounted to 4 nM; in assay [2] (Table II), 2 nM.

Values taken from patent publication US8557830B2, “RAF kinase modulators and methods of use” (Amgen Inc., priority 2007, dated 2013).
